What all share (type): cell-based
Experiment [1] has as its system human pancreatic stem cells. In words: Cell clones from second digestion of pancreas tissue, DMEM-10% DFBS + GrNP supplementation. The conditions noted are these: for #clones after 1 passage, Method 1 / #clones after 1 passage, Method 2: 1 mM supplement, second digestion; for Enhancement of clonal cell proliferation: Method 1 and Method 2. On the procedure:
(§1) More specifically, after mincing of intact pancreatic tissue (harvested by the National Disease Research Interchange from donors within 4 hours of death), the pancreatic tissue was digested with liberase H (Roche). Two successive digestions of 20 and 30 minutes were performed at 37° C. in serum-free Dulbecco's modified Eagle's medium (DMEM) containing 1 mg/mL LIBERASE H. The cells and cell clusters released after each of these digestions were cultured.
In one embodiment of the methods described herein, termed herein as “Method 1,” twice digested pancreas digestion products can be cultured in DMEM supplemented with 10% dialyzed fetal bovine serum (DFBS).
(§2) In another embodiment of the methods described herein, termed herein as “Method 2,” the same two successive digestion procedure can be used, but the final tissue fragments remaining after the second digestion can also be cultured independently. For this embodiment of the methods, CMRL-1066 medium can be used as a second base culture medium in parallel with DMEM for all cultured pancreatic cell and tissue preparations. In one such example of Method 2, CMRL-1066 medium was supplemented with 10% DFBS and 2 mM L-glutamine and subdivided for the same GrNP supplementations as indicated for DMEM-10% DFBS medium in Method 1.

Experiment [2] has as its system human pancreatic stem cells. In words: Cell clones from twice-digested fragments of pancreas tissue, CMRL-1066-10% DFBS + GrNP supplementation. Conditions: for Clone expansion rate (percent of isolated clones that could be expanded to full cultures) / #clones after 1 passage, Method 2: 1 mM supplement; for Clone expansion rate (percent of isolated clones that could be expanded to full cultures) / #clones after 1 passage, Method 2 / Increase in number of clones (primary cell colonies) over control: CMRL-1066-10% DFBS; for #clones after 1 passage, Method 2: twice-digested tissue fragments; for Increase in number of clones (primary cell colonies) over control: Method 2; for Increase in proportion of clones that could be further expanded to full cultures: CMRL-1066 medium, tissue fragments, versus control. On the procedure: as §1, §2
Accordingly, in some embodiments of the methods described herein, the culture medium comprise Xn, Xs, or a combination thereof.

In experiment [3] the test system is human pancreatic stem cells. Description: Population doubling analysis of pooled polyclonal strains (Method 2, CMRL-1066). On the procedure: Growth properties of human pancreatic stem cell strains. Four weeks after replating, clones were picked and expanded. Cells left after clonal isolations from the CMRL-1066 conditions were pooled and grown. They were trypsinized and counted on a regular basis, and population doublings were calculated accordingly. The number of clones detected for each condition is represented on the top two histograms. The bottom histogram represents the percentage of harvested clones that continued their expansion after isolation.
After isolating clonal cell colonies produced by the embodiment of the methods described herein termed Method 2 (Table 2) for expansion, the remaining unselected cell clones were pooled and expanded as well (i.e., polyclonal strains). Population doubling analyses were performed based on the passage of the expansion pool cultures.

For the compound `O=c1[nH]cnc2nc[nH]c12` [Hx, hypoxanthine], in experiment [1], the “#clones after 1 passage, Method 1” value was determined as 22; the “#clones after 1 passage, Method 2” value is reported as 13; the “Enhancement of clonal cell proliferation” value is on record as “more effective in enhancing clonal cell proliferation than Xn”.
Consider `O=c1[nH]c(=O)c2[nH]cnc2[nH]1` [Xn, xanthine], for which, in experiment [1], the “#clones after 1 passage, Method 1” value came out at 3; the “#clones after 1 passage, Method 2” value is listed as 5; the “Enhancement of clonal cell proliferation” value is on record as “not statistically different than control”. Besides, in experiment [2], the “Clone expansion rate (percent of isolated clones that could be expanded to full cultures)” value is reported as 13%; the “#clones after 1 passage, Method 2” value came to 54; the “Increase in number of clones (primary cell colonies) over control” value is listed as “approximately 50%”; the “Increase in proportion of clones that could be further expanded to full cultures” value is 3.4 fold. The compound also showed a Cell expansion corresponding to the population doublings in experiment [3] (polyclonal strains) of around 1e+06 fold. Also, the “Population doublings of polyclonal strains” value in experiment [3] (supplemented medium, expansion pool cultures) was 20 population doublings.
For the compound `O=c1[nH]c(=O)c2ncn([C@@H]3O[C@H](CO)[C@@H](O)[C@H]3O)c2[nH]1` [Xs, xanthosine], in experiment [1], the “#clones after 1 passage, Method 1” value came out at 13; the “#clones after 1 passage, Method 2” value is recorded as 12; the “Enhancement of clonal cell proliferation” value was “more effective in enhancing clonal cell proliferation than Xn”. Besides, in experiment [2], the “Clone expansion rate (percent of isolated clones that could be expanded to full cultures)” value came to 10%; the “#clones after 1 passage, Method 2” value is 59; the “Increase in number of clones (primary cell colonies) over control” value was “approximately 50%”; the “Increase in proportion of clones that could be further expanded to full cultures” value is given as 2.6 fold.

(Values after patent US20140193910A1, “METHODS FOR PRODUCING PANCREATIC PRECURSOR CELLS AND USES THEREOF” (priority 2011, published 2014).)
